According to publication PMC9866482, “Determination of Chemical Composition and Investigation of Biological Activities of Ocimum basilicum L” (Molecules, 2023):
Marks after values point to notes of the source that are not given here. Blank lines part the entries; values can stand above or below the compound they belong to.

How the values were obtained:
[1] = tested on: Proteus mirabilis ATCC 25933; assay: MIC and MBC by microdilution; format: cell-based; settings: ATCC25933, head does not say MIC or MBC, read-out: Controls (MIC of positive control)
Procedure: (§1) The bacterial strains were revived by inoculation in Mueller–Hinton Agar (MHA) followed by incubation at 37 °C for 24 h. A bacterial suspension (0.5 McFarland) was prepared in sterile physiologic water (0.9% NaCl) from the obtained culture. The yeast strain was inoculated in Sabouraud’s agar (SA) and incubated at 25 °C for 48 h, then a yeast suspension (0.5 McFarland) was prepared in sterile physiological water. The Fungi strains were sub-cultured in SA and incubated at 25 °C for 5 days. Afterward, the culture was washed with 2 mL of sterile physiological water. The suspension was transferred to a sterile assay tube, where the heavy particles were allowed to settle for 5 min. The upper homogeneous suspensions were transferred to a new sterile tube and adjusted microscopically to about 10^4 CFU/mL. […] The minimum inhibitory concentration (MIC) is defined as the lowest concentration of EO or extract that can inhibit the growth of microorganisms. […] Mueller–Hinton broth (MHB) (Biokar, Beauvais, France) was used for bacteria, whereas Sabouraud broth (Biokar, Beauvais, France) was employed for yeast. The incubation was carried out at 37 °C for 24 h for the bacteria and at 25 °C for 48 h for the yeasts. However, MIC determination for fungi was carried out by the gradient plate method according to the protocol previously described. Chloramphenicol was used as a positive control for bacteria, while nystatin was used for yeasts and fungi. Minimum bactericidal concentration (MBC) corresponds to the lowest EO or extract concentration that can kill the microorganism. The same microdilution experiment used in determining the MIC was used.

[2] = tested on: Escherichia coli ATCC 25922; assay: MIC and MBC by microdilution; format: cell-based; settings: ATCC25922, head does not say MIC or MBC, method names the control for MIC, read-out: Controls (MIC of positive control)
Procedure: as §1

[3] = tested on: Salmonella enterica Typhimurium ATCC 700408; assay: MIC and MBC by microdilution; format: cell-based; settings: head does not say MIC or MBC, read-out: Controls (MIC of positive control)
Procedure: as §1

[4] = tested on: Bacillus subtilis ATCC 6633; assay: MIC and MBC by microdilution; format: cell-based; settings: ATCC6633, head does not say MIC or MBC, read-out: Controls (MIC of positive control)
Procedure: as §1

[5] = tested on: Listeria monocytogenes ATCC 13932; assay: MIC and MBC by microdilution; format: cell-based; settings: ATCC13932, head does not say MIC or MBC, read-out: Controls (MIC of positive control)
Procedure: as §1

[6] = tested on: Staphylococcus aureus ATCC 29213; assay: MIC and MBC by microdilution; format: cell-based; settings: ATCC29213, head does not say MIC or MBC, read-out: Controls (MIC of positive control)
Procedure: as §1

[7] = tested on: Proteus mirabilis ATCC 25933; assay: Disc diffusion assay; format: cell-based; settings: ATCC25933, disc with 10 µL EO or aqueous extract, chloramphenicol 30 µg, read-out: Diameters of the inhibition zones
Procedure: (§2) The bacterial strains were revived by inoculation in Mueller–Hinton Agar (MHA) followed by incubation at 37 °C for 24 h. A bacterial suspension (0.5 McFarland) was prepared in sterile physiologic water (0.9% NaCl) from the obtained culture. The yeast strain was inoculated in Sabouraud’s agar (SA) and incubated at 25 °C for 48 h, then a yeast suspension (0.5 McFarland) was prepared in sterile physiological water. The Fungi strains were sub-cultured in SA and incubated at 25 °C for 5 days. Afterward, the culture was washed with 2 mL of sterile physiological water. The suspension was transferred to a sterile assay tube, where the heavy particles were allowed to settle for 5 min. The upper homogeneous suspensions were transferred to a new sterile tube and adjusted microscopically to about 10^4 CFU/mL.
(§3) Briefly, the culture suspension was inoculated by swab on optimal culture media (MHA for bacteria and SA for yeasts and fungi). Afterward, six mm diameter sterile paper discs soaked in 10 µL of EO (mixed with 5% dimethyl sulfoxide (DMSO)) or aqueous extract were deposited on each plate. Chloramphenicol (30 µg) was used as a positive control for bacteria, and nystatin (100 I.U.) was used as a positive control for yeasts and fungi, while DMSO (10 µL; 5%) as a negative control. Incubation was then conducted at 37 °C for 24 h, 25 °C for 48 h, and 25 °C for 72 h for bacteria, yeasts, and fungi, respectively. After incubation, the diameters of the inhibition zones were measured in millimeters, and the results were expressed as the mean ± standard deviation (SD) of three replicates.

[8] = tested on: Escherichia coli ATCC 25922; assay: Disc diffusion assay; format: cell-based; settings: ATCC25922, disc with 10 µL EO or aqueous extract, chloramphenicol 30 µg, read-out: Diameters of the inhibition zones
Procedure: as §2, §3

[9] = tested on: Salmonella enterica Typhimurium ATCC 700408; assay: Disc diffusion assay; format: cell-based; settings: disc with 10 µL EO or aqueous extract, chloramphenicol 30 µg, read-out: Diameters of the inhibition zones
Procedure: as §2, §3

[10] = tested on: Bacillus subtilis ATCC 6633; assay: Disc diffusion assay; format: cell-based; settings: disc with 10 µL EO or aqueous extract, chloramphenicol 30 µg
Procedure: as §2, §3

[11] = tested on: Listeria monocytogenes ATCC 13932; assay: Disc diffusion assay; format: cell-based; settings: ATCC13932, disc with 10 µL EO or aqueous extract, chloramphenicol 30 µg, read-out: Diameters of the inhibition zones
Procedure: as §2, §3

[12] = tested on: Staphylococcus aureus ATCC 29213; assay: Disc diffusion assay; format: cell-based; settings: ATCC29213, disc with 10 µL EO or aqueous extract, chloramphenicol 30 µg, read-out: Diameters of the inhibition zones
Procedure: as §2, §3

Aspergillus niger [13] = assay: MIC by gradient plate method, MBC; format: cell-based; settings: head does not say MIC or MBC
Procedure: as §1, with “Chloramphenicol was used as a positive control for bacteria, while nystatin was used for yeasts and fungi. Minimum bactericidal concentration (MBC) corresponds to the lowest EO or extract concentration that can kill the microorganism. The same microdilution experiment used in determining the MIC was used.” left out

Trichophyton rubrum [14] = assay: MIC by gradient plate method, MBC; format: cell-based; settings: head does not say MIC or MBC
Procedure: as §1, with “Chloramphenicol was used as a positive control for bacteria, while nystatin was used for yeasts and fungi. Minimum bactericidal concentration (MBC) corresponds to the lowest EO or extract concentration that can kill the microorganism. The same microdilution experiment used in determining the MIC was used.” left out

Aspergillus niger [15] = assay: Disc diffusion assay; format: cell-based; settings: disc with 10 µL EO or aqueous extract, nystatin 100 I.U.
Procedure: as §2, §3

Candida albicans [16] = assay: Disc diffusion assay; format: cell-based; settings: disc with 10 µL EO or aqueous extract, nystatin 100 I.U.
Procedure: as §2, §3

Trichophyton rubrum [17] = assay: Disc diffusion assay; format: cell-based; settings: disc with 10 µL EO or aqueous extract, nystatin 100 I.U.
Procedure: as §2, §3

Candida albicans [18] = assay: MIC and MBC by microdilution (yeast); format: cell-based; settings: head does not say MIC or MBC
Procedure: as §1, with “Chloramphenicol was used as a positive control for bacteria, while nystatin was used for yeasts and fungi. Minimum bactericidal concentration (MBC) corresponds to the lowest EO or extract concentration that can kill the microorganism. The same microdilution experiment used in determining the MIC was used.” left out

[19] = Ferric reducing antioxidant power (FRAP) assay; settings: mean of triplicates ± SD
ABTS antioxidant assay = settings: mean of triplicates ± SD
tyrosinase = tyrosinase (Agaricus bisporus, UniProt C7FF04); settings: basil EOs from different cultivars, arbutin as positive control ref 111; cited from earlier work
[20] = set-up: method as in PMID 35926753; settings: LPS-treated rats, oral dose 500 mg/60 kg b.w. ref 109; cited from earlier work

Sequence of tyrosinase (C7FF04 1-392): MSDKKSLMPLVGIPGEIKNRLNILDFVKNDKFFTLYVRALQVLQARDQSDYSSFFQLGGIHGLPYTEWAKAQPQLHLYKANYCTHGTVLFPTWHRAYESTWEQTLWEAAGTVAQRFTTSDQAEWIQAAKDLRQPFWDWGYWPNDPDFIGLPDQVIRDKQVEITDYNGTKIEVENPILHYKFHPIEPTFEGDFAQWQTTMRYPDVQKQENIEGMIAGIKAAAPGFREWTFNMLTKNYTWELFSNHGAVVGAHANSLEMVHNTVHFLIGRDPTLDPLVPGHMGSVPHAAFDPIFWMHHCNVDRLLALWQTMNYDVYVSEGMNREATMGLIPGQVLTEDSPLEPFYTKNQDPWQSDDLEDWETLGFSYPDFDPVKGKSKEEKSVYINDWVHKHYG

MIC [1]: 4 µg/mL
MIC [2]: 4 µg/mL
MIC [3]: 64 µg/mL
MIC [4]: 32 µg/mL
MIC [5]: 2 µg/mL
MIC [6]: 4 µg/mL
SMILES: O=C(N[C@H](CO)[C@H](O)c1ccc([N+](=O)[O-])cc1)C(Cl)Cl [Chloramphenicol]
zone of inhibition at 30 µg/disc [7]: 22.2 ± 0.15 mm
zone of inhibition at 30 µg/disc [8]: 21.9 ± 0.2 mm
zone of inhibition at 30 µg/disc [9]: 13.5 ± 0.15 mm
Diameters of the inhibition zones ([10]; Bacillus subtilis ATCC 6633): 15.5 ± 0.15 mm
zone of inhibition at 30 µg/disc ([10]; Bacillus subtilis, ATCC6633, Bacillus subtilis ATCC 6633, read-out: Diameters of the inhibition zones): 15.7 mm
zone of inhibition at 30 µg/disc [11]: 27.9 ± 0.15 mm
zone of inhibition at 30 µg/disc [12]: 25 ± 0.25 mm

SMILES: C[C@@H]1[C@H](O)[C@@H](C)/C=C/C=C/CC/C=C/C=C/C=C/C=C/C(O[C@H]2O[C@H](C)[C@@H](O)[C@H](N)[C@@H]2O)CC2O[C@](O)(CC(O)C(O)CCC(O)CC(O)CC(O)CC(=O)O[C@H]1C)CC(O)C2C(=O)O (stereo partly drawn) [Nystatin]
Controls (MIC of positive control) (Aspergillus niger [13]): 16 µg/mL
Controls (MIC of positive control) (Trichophyton rubrum [14]): 16 µg/mL
Diameters of the inhibition zones (Aspergillus niger [15]): 26.4 ± 0.10 mm
Diameters of the inhibition zones (Candida albicans [16]): 29.7 ± 0.20 mm
Diameters of the inhibition zones (Trichophyton rubrum [17]): 24.9 ± 0.26 mm
Controls (MIC of positive control) (Candida albicans [18]): 4 µg/mL

IC50 FRAP [19]: 8.52 ± 0.17 ^c mg TEs/g
IC50 ABTS (ABTS antioxidant assay): 9.33 ± 0.07 ^c mg TEs/g
SMILES: Cc1c(C)c2c(c(C)c1O)CCC(C)(C(=O)O)O2 (stereo not drawn) [Trolox]

SMILES: OC[C@H]1O[C@@H](Oc2ccc(O)cc2)[C@H](O)[C@@H](O)[C@@H]1O [arbutin]
Tyrosinase inhibitory activity (tyrosinase): 81.5 ± 2.6%

SMILES: O=C(O)c1ccccc1 [benzoic acid]
Level of IL-1β [20]: 2.32 ± 0.28 × 10^3 pg/mL
Level of tumor necrosis factor-α (TNF-α) [20]: 5.70 ± 1.04 × 10^3 pg/mL
